Results reported in the supplement of paper PMC10331698.
± gives the standard deviation of the averaged measurements.

Assays:
Assay in all cases: level (log10 ratio to DMSO vehicle control); higher = higher biomarker level / cell amount than vehicle control
[1] = compound: C=C(C)C(=O)OCCC(F)(F)C(F)(F)C(F)(F)C(F)(F)C(F)(F)C(F)(F)C(F)(F)C(F)(F)F [8:2 Fluorotelomer methacrylate] (in DMSO)
Protocol: (§1)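 BioMAP Diversity Plus panel of 12 human primary cell co-culture systems (3C, 4H, LPS, SAg, BT, BF4T, BE3C, CASM3C, HDF3CGF, KF3CT, MyoF, Mphg). Compounds were added 1 h before stimulation and left for 24 h (MyoF 48 h; BT 72 h for soluble read-outs or 6 d for IgG). Biomarkers were read by ELISA, cytotoxicity by SRB, PBMC viability and proliferation by Alamar Blue. Each well value was divided by the mean of 8 DMSO control wells on the same plate and log10 transformed; duplicate blinded samples were tested at 4 concentrations.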

[2] = compound: O=C(O)C(F)(F)C(F)(F)C(F)(F)C(F)(F)C(F)(F)C(F)(F)C(F)(F)C(F)(F)F [Perfluorononanoic acid] (in DMSO)
Protocol: as §1

[3] = compound: O=C(O)C(F)(F)C(F)(F)C(F)(F)OC(F)(F)F [Perfluoro(4-methoxybutanoic) acid] (in DMSO)
Protocol: as §1

[4] = compound: O=C(O)C(F)(OC(F)(F)C(F)(F)C(F)(F)F)C(F)(F)F [Ammonium perfluoro-2-methyl-3-oxahexanoate] (in Water)
Protocol: as §1

[5] = compound: O=C(O)C(F)(OC(F)(F)C(F)(OC(F)(F)C(F)(OC(F)(F)C(F)(F)C(F)(F)F)C(F)(F)F)C(F)(F)F)C(F)(F)F [Perfluoro-(2,5,8-trimethyl-3,6,9-trioxadodecanoic)acid] (in DMSO)
Protocol: as §1

[6] = compound: O=S(=O)(O)C(F)(F)C(F)(F)C(F)(F)C(F)(F)C(F)(F)C(F)(F)C(F)(F)F [Perfluoroheptanesulfonic acid] (in DMSO)
Protocol: as §1

[7] = compound: O=S(=O)(O)C(F)(F)C(F)(F)OC(F)(F)C(F)(F)F [Perfluoro(2-ethoxyethane)sulfonic acid] (in DMSO)
Protocol: as §1

| Test System | level (log10) ([1]; 6700 nM) | level (log10) ([1]; 20000 nM) | level (log10) ([2]; 6700 nM) | level (log10) ([2]; 20000 nM) | level (log10) ([3]; 6700 nM) | level (log10) ([3]; 20000 nM) | level (log10) ([3]; 60000 nM) | level (log10) ([4]; 6700 nM) | level (log10) ([4]; 20000 nM) | level (log10) ([4]; 60000 nM) | level (log10) ([5]; 1100 nM) | level (log10) ([5]; 3300 nM) | level (log10) ([5]; 10000 nM) | level (log10) ([6]; 1500 nM) | level (log10) ([6]; 4400 nM) | level (log10) ([6]; 13000 nM) | level (log10) ([6]; 40000 nM) | level (log10) ([7]; 6700 nM) | level (log10) ([7]; 20000 nM) | level (log10) ([7]; 60000 nM) |
| --- | --- | --- | --- | --- | --- | --- | --- | --- | --- | --- | --- | --- | --- | --- | --- | --- | --- | --- | --- | --- |
| 3C:CCL2/MCP-1 | 0.0115 ± 0.012 | 0.009 ± 0.0014 | -0.014 ± 0.038 | -0.0045 ± 0.016 | -0.012 ± 0.0028 | -0.006 ± 0.0028 | 0.031 ± 0.041 | -0.003 ± 0.0085 | -0.004 ± 0.016 | 0.056 ± 0.05 | -0.0075 ± 0.0035 | -0.0195 ± 0.00071 | 0.001 ± 0.034 | -0.0035 ± 0.005 | -0.0065 ± 0.0021 | 0.002 ± 0.0014 | 0.01 ± 0.0014 | -0.022 ± 0.03 | -0.014 ± 0.014 | -0.0095 ± 0.019 |
| 3C:CD54/ICAM-1 | -0.0125 ± 0.016 | -0.0095 ± 0.025 | -0.028 ± 0.0014 | -0.023 ± 0.0099 | -0.0205 ± 0.011 | -0.0275 ± 0.00071 | -0.029 ± 0.0014 | -0.0255 ± 0.0092 | 0.0065 ± 0.00071 | 0.0055 ± 0.011 | 0.007 ± 0.02 | -0.0005 ± 0.00071 | 0.0185 ± 0.0064 | 0.0085 ± 0.005 | -0.003 ± 0.0042 | -0.001 ± 0.013 | -0.0015 ± 0.0021 | -0.0105 ± 0.028 | -0.0095 ± 0.023 | -0.01 ± 0.024 |
| 3C:CD62E/E-Selectin | -0.024 ± 0.0085 | -0.0225 ± 0.005 | -0.0195 ± 0.0078 | -0.013 ± 0.013 | -0.012 ± 0.057 | -0.0085 ± 0.046 | -0.014 ± 0.0085 | 0.0025 ± 0.005 | 0.0105 ± 0.011 | 0.011 ± 0.011 | -0.0005 ± 0.016 | -0.0035 ± 0.005 | 0.019 ± 0.0071 | -0.01 ± 0.021 | -0.018 | -0.024 ± 0.017 | 0.005 ± 0.0014 | 0.0125 ± 0.012 | 0 | 0.0125 ± 0.0064 |
| 3C:CD106/VCAM-1 | -0.0205 ± 0.019 | -0.0445 ± 0.015 | -0.0205 ± 0.016 | -0.0195 ± 0.023 | -0.007 ± 0.0071 | -0.0145 ± 0.035 | -0.0265 ± 0.0078 | -0.0065 ± 0.0035 | -0.0245 ± 0.0035 | -0.0155 ± 0.00071 | -0.0075 ± 0.022 | -0.0055 ± 0.028 | -0.0005 ± 0.028 | 0.001 ± 0.0042 | -0.011 ± 0.0014 | -0.016 ± 0.0028 | -0.0185 ± 0.00071 | 0.008 ± 0.033 | 0.002 ± 0.0071 | 0 ± 0.0085 |
| 3C:CD141/Thrombomodulin | -0.031 ± 0.055 | -0.033 ± 0.02 | -0.0225 ± 0.00071 | -0.0285 ± 0.011 | 0.003 ± 0.055 | -0.0165 ± 0.11 | -0.0245 ± 0.12 | -0.0395 ± 0.03 | -0.0315 ± 0.011 | -0.057 ± 0.0028 | -0.0035 ± 0.026 | -0.0185 ± 0.029 | -0.01 ± 0.035 | 0.014 ± 0.013 | -0.0085 ± 0.028 | -0.035 ± 0.064 | -0.042 ± 0.028 | 0.0085 ± 0.018 | -0.0145 ± 0.036 | -0.023 ± 0.0028 |
| 3C:CD142/Tissue Factor | 0.0445 ± 0.047 | 0.0595 ± 0.022 | -0.0555 ± 0.0021 | -0.0455 ± 0.032 | 0.0125 ± 0.077 | 0.013 ± 0.095 | -0.021 ± 0.12 | 0.0735 ± 0.012 | 0.0805 ± 0.0078 | 0.0805 ± 0.00071 | -0.013 ± 0.0042 | -0.0055 ± 0.015 | -0.005 ± 0.013 | 0.0375 ± 0.011 | 0.021 ± 0.031 | 0.048 ± 0.048 | 0.0665 ± 0.1 | 0.013 ± 0.0057 | -0.001 ± 0.024 | 0.017 ± 0.0042 |
| BE3C:Keratin 8/18 | -0.0195 ± 0.037 | -0.008 ± 0.071 | -0.0335 ± 0.04 | -0.0365 ± 0.032 | -0.013 ± 0.0057 | -0.002 ± 0.0071 | -0.004 ± 0.011 | -0.042 ± 0.0042 | -0.019 ± 0.024 | -0.0165 ± 0.0092 | -0.0165 ± 0.028 | -0.0085 ± 0.022 | -0.001 ± 0.038 | -0.013 ± 0.035 | -0.0065 ± 0.037 | -0.015 ± 0.033 | -0.0185 ± 0.033 | -0.007 ± 0.013 | -0.0105 ± 0.013 | -0.01 ± 0.011 |
| BE3C:MMP-1 | 0.0135 ± 0.012 | -0.003 ± 0.0057 | 0.05 ± 0.059 | 0.221 ± 0.035 | 0.0115 ± 0.012 | -0.009 ± 0.041 | 0.029 ± 0.095 | 0.0325 ± 0.032 | 0.062 ± 0.038 | 0.136 ± 0.013 | -0.0135 ± 0.00071 | -0.0175 ± 0.018 | 0.0135 ± 0.022 | 0.011 ± 0.018 | 0.019 ± 0.023 | 0.05 ± 0.021 | 0.133 ± 0.022 | -0.001 ± 0.0071 | 0.0055 ± 0.018 | 0.108 ± 0.069 |
| BE3C:MMP-9 | -0.0125 ± 0.06 | -0.024 ± 0.085 | -0.0075 ± 0.00071 | 0.0055 ± 0.011 | -0.008 ± 0.0014 | 0.0035 ± 0.0064 | 0.011 ± 0.0057 | -0.109 ± 0.051 | -0.09 ± 0.03 | -0.063 ± 0.035 | -0.0155 ± 0.0092 | -0.011 ± 0.0071 | -0.0145 ± 0.011 | -0.0015 ± 0.032 | -0.0125 ± 0.081 | -0.025 ± 0.041 | 0.0055 ± 0.04 | -0.0015 ± 0.00071 | -0.0005 ± 0.015 | 0.0265 ± 0.012 |
| BE3C:PAI-I | 0.001 ± 0.041 | -0.013 ± 0.076 | -0.013 ± 0.042 | -0.101 ± 0.019 | -0.005 ± 0.0085 | -0.001 ± 0.025 | -0.0005 ± 0.0021 | -0.0995 ± 0.057 | -0.092 ± 0.044 | -0.124 ± 0.012 | -0.0265 ± 0.036 | -0.0315 ± 0.022 | 0.006 ± 0.064 | 0.016 ± 0.044 | 0.047 ± 0.057 | 0.0385 ± 0.06 | 0.033 ± 0.078 | -0.011 ± 0.023 | 0.0015 ± 0.021 | 0.032 ± 0.014 |
| BE3C:SRB | -0.003 | 0.0025 ± 0.005 | -0.0015 ± 0.005 | -0.04 ± 0.0028 | 0.0015 ± 0.0021 | 0.0005 ± 0.0078 | 0.003 ± 0.0099 | -0.003 ± 0.0042 | 0 ± 0.0014 | 0.003 ± 0.0099 | -0.0015 ± 0.0021 | -0.0075 ± 0.0035 | 0.0105 ± 0.015 | 0.015 ± 0.014 | -0.005 ± 0.0099 | -0.0005 ± 0.0021 | -0.0055 ± 0.0064 | -0.001 ± 0.0042 | 0 ± 0.0014 | 0.0055 ± 0.018 |
| BE3C:tPA | -0.0125 ± 0.067 | -0.036 ± 0.082 | -0.012 ± 0.0042 | -0.172 ± 0.023 | 0.002 ± 0.023 | -0.0065 ± 0.011 | -0.0015 ± 0.016 | -0.101 ± 0.047 | -0.0935 ± 0.021 | -0.0945 ± 0.021 | -0.0035 ± 0.025 | 0.0075 ± 0.023 | 0.017 ± 0.04 | 0.023 ± 0.041 | 0.0415 ± 0.073 | 0.066 ± 0.1 | 0.0595 ± 0.086 | -0.004 ± 0.034 | -0.053 ± 0.013 | 0.0595 ± 0.013 |
| BE3C:uPA | -0.0145 ± 0.012 | -0.0145 ± 0.059 | -0.0445 ± 0.08 | -0.0195 ± 0.076 | -0.004 ± 0.017 | -0.0125 ± 0.012 | 0.0035 ± 0.005 | 0.033 ± 0.027 | 0.0315 ± 0.016 | 0.0245 ± 0.012 | 0.0025 ± 0.0064 | -0.011 ± 0.0014 | -0.0025 ± 0.019 | -0.0055 ± 0.023 | -0.004 ± 0.034 | -0.0235 ± 0.032 | -0.018 ± 0.038 | -0.0015 ± 0.022 | -0.0145 ± 0.039 | -0.004 ± 0.023 |
| CASM3C:CCL2/MCP-1 | -0.011 ± 0.0099 | 0.0025 ± 0.037 | -0.0295 ± 0.049 | -0.0085 ± 0.054 | -0.01 ± 0.011 | -0.008 ± 0.0057 | 0.017 ± 0.031 | -0.0235 ± 0.021 | -0.034 ± 0.035 | -0.013 ± 0.013 | 0 ± 0.0042 | -0.008 ± 0.0028 | 0.0055 ± 0.005 | -0.007 ± 0.088 | -0.043 ± 0.024 | -0.034 ± 0.016 | -0.021 ± 0.0028 | -0.003 ± 0.024 | -0.013 ± 0.0071 | -0.0115 ± 0.036 |
